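A five-concentration, 48-hour dose response in 96-well plates underlies each endpoint, interpolated linearly between surrounding concentrations. GI50 marks 50% less growth.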 The source made the active and inactive calls. Rule as the data show it: active = GI50 up to about 1.1 µM and inactive = higher.
Legend:
Assay in all cases: NCI-60 cell line screen, 48 h
SK-OV-3 = test system: SK-OV-3
Hs-578T = test system: Hs-578T
UACC-62 = test system: UACC-62
BT-549 = test system: BT-549
SN12C = test system: SN12C
HCC 2998 = test system: HCC 2998
SW-620 = test system: SW-620
786-0 = test system: 786-0
SK-MEL-28 = test system: SK-MEL-28
NCI-H460 = test system: NCI-H460
SF-295 = test system: SF-295
PC-3 = test system: PC-3
LOX IMVI = test system: LOX IMVI
SR = test system: SR
OVCAR-8 = test system: OVCAR-8
HOP-92 = test system: HOP-92
NCI-H522 = test system: NCI-H522
MDA-N = test system: MDA-N
RXF 393 = test system: RXF 393
NCI-H226 = test system: NCI-H226

Measured: GI50

CC(C)(C(=O)NN)c1ccccc1
inactive: SK-OV-3 > 100 µM | Hs-578T > 100 µM | UACC-62 19.3 µM | BT-549 > 100 µM | SN12C > 100 µM | HCC 2998 > 100 µM | SW-620 33 µM | 786-0 > 100 µM | SK-MEL-28 > 100 µM | NCI-H460 37.2 µM | SF-295 33.7 µM | PC-3 > 100 µM | LOX IMVI 7.91 µM | SR > 100 µM | OVCAR-8 > 100 µM | HOP-92 > 100 µM | NCI-H522 56.2 µM | MDA-N 42.4 µM

CC(C)OC1OC(CO)C(O)CC1n1cc(F)c(=O)[nH]c1=O (stereo not given)
inactive: Hs-578T 86.3 µM | UACC-62 > 100 µM | BT-549 > 100 µM | SN12C > 100 µM | HCC 2998 > 100 µM | SW-620 30.9 µM | 786-0 > 100 µM | SK-MEL-28 > 100 µM | NCI-H460 > 100 µM | SF-295 > 100 µM | RXF 393 47.5 µM | PC-3 > 100 µM | LOX IMVI 94 µM | OVCAR-8 > 100 µM | NCI-H226 > 100 µM | HOP-92 > 100 µM | NCI-H522 16.2 µM | MDA-N > 100 µM

OC1(c2ccccc2)CC2CCC(C1)N2CCCC1(c2ccc(F)cc2)OCCO1 (stereo not given)
inactive: SK-OV-3 > 100 µM | Hs-578T > 100 µM | UACC-62 > 100 µM | BT-549 > 100 µM | SN12C > 100 µM | SW-620 > 100 µM | 786-0 18.2 µM | SK-MEL-28 36.1 µM | SF-295 3.26 µM | RXF 393 59.7 µM | PC-3 22.5 µM | LOX IMVI > 100 µM | SR 27.3 µM | OVCAR-8 16.3 µM | NCI-H522 > 100 µM | MDA-N > 100 µM

COc1cc2c(c(O)c1OC)C(=O)[C@@H]1CCC(=O)N1C2c1ccccc1 (stereo not given in full)
inactive: SK-OV-3 > 100 µM | Hs-578T 40.5 µM | UACC-62 44.5 µM | BT-549 > 100 µM | SN12C > 100 µM | HCC 2998 > 100 µM | SW-620 > 100 µM | 786-0 > 100 µM | SK-MEL-28 > 100 µM | NCI-H460 > 100 µM | SF-295 > 100 µM | PC-3 31.8 µM | LOX IMVI 97.1 µM | SR 46.6 µM | OVCAR-8 57.5 µM | NCI-H226 > 100 µM | NCI-H522 28.5 µM | MDA-N > 100 µM

Nc1nc(N)c(NC(=O)CCCO)c(=O)[nH]1
inactive: SK-OV-3 > 100 µM | Hs-578T > 100 µM | UACC-62 > 100 µM | BT-549 > 100 µM | SN12C > 100 µM | HCC 2998 > 100 µM | SW-620 > 100 µM | 786-0 > 100 µM | NCI-H460 > 100 µM | SF-295 > 100 µM | RXF 393 > 100 µM | PC-3 > 100 µM | LOX IMVI > 100 µM | OVCAR-8 > 100 µM | NCI-H226 > 100 µM | HOP-92 > 100 µM | NCI-H522 67.1 µM | MDA-N > 100 µM

Cn1c(=O)c2c(O)cc(N)nc2n(C)c1=O
inactive: SK-OV-3 > 100 µM | Hs-578T > 100 µM | UACC-62 > 100 µM | BT-549 > 100 µM | SN12C > 100 µM | HCC 2998 > 100 µM | SW-620 > 100 µM | 786-0 > 100 µM | SK-MEL-28 > 100 µM | NCI-H460 > 100 µM | SF-295 > 100 µM | RXF 393 > 100 µM | PC-3 > 100 µM | LOX IMVI > 100 µM | OVCAR-8 63.4 µM | NCI-H226 > 100 µM | HOP-92 67.3 µM | NCI-H522 > 100 µM | MDA-N > 100 µM

CCOC(=O)c1c(NS(=O)(=O)c2ccc(Br)cc2)sc2c1CCCC2
inactive: SK-OV-3 18.5 µM | Hs-578T 4.43 µM | UACC-62 6.46 µM | BT-549 7.59 µM | SN12C 6.14 µM | HCC 2998 16.7 µM | SW-620 16.5 µM | 786-0 9.31 µM | SK-MEL-28 15.8 µM | NCI-H460 6.4 µM | SF-295 3.92 µM | RXF 393 2.67 µM | PC-3 5.41 µM | LOX IMVI 13.6 µM | SR 19.7 µM | OVCAR-8 5.89 µM | NCI-H226 3.66 µM | NCI-H522 2.03 µM | MDA-N 13.8 µM

C=CC[C@H](N=C(SC)SC)C(=O)N1C(=O)N(C)[C@@H](C)[C@H]1c1ccccc1
inactive: SK-OV-3 75 µM | Hs-578T 21.3 µM | UACC-62 35.1 µM | BT-549 34.6 µM | SN12C 40.7 µM | HCC 2998 27.9 µM | SW-620 30.1 µM | 786-0 46.6 µM | SK-MEL-28 39.5 µM | NCI-H460 34.1 µM | SF-295 40.3 µM | RXF 393 33.8 µM | PC-3 33.7 µM | LOX IMVI 72.8 µM | OVCAR-8 51.1 µM | NCI-H226 31.6 µM | HOP-92 23.3 µM | NCI-H522 14.9 µM | MDA-N 33.8 µM

O=S1(=O)c2ccccc2N2CCCc3cc(Cl)cc1c32
inactive: SK-OV-3 51.9 µM | Hs-578T 27.4 µM | UACC-62 60.1 µM | BT-549 > 100 µM | SN12C > 100 µM | HCC 2998 > 100 µM | SW-620 > 100 µM | 786-0 40.4 µM | SK-MEL-28 > 100 µM | NCI-H460 > 100 µM | SF-295 29.3 µM | RXF 393 25.2 µM | PC-3 > 100 µM | LOX IMVI > 100 µM | SR > 100 µM | OVCAR-8 > 100 µM | NCI-H226 > 100 µM | MDA-N > 100 µM

Oc1ccc(Br)cc1/C=N/c1cccc(C(F)(F)F)c1
inactive: SK-OV-3 45.7 µM | Hs-578T 28 µM | UACC-62 25.1 µM | BT-549 22.3 µM | SN12C 30.5 µM | HCC 2998 23.1 µM | SW-620 24 µM | 786-0 30.4 µM | SK-MEL-28 36.1 µM | NCI-H460 > 100 µM | SF-295 38.6 µM | RXF 393 > 100 µM | PC-3 7.16 µM | LOX IMVI 18.3 µM | OVCAR-8 30.4 µM | NCI-H226 17.3 µM | HOP-92 35.2 µM | NCI-H522 > 100 µM | MDA-N 32.9 µM

Cc1cc(OCc2nnc3n2N=C(c2cc(F)c(Cl)cc2Cl)/C(=C/c2ccc(-c4ccc(Cl)cc4)o2)S3)ccc1Cl
inactive: Hs-578T > 50 µM | UACC-62 18.2 µM | BT-549 > 50 µM | SN12C 31.3 µM | HCC 2998 19 µM | SW-620 32.9 µM | 786-0 > 50 µM | SK-MEL-28 24.5 µM | NCI-H460 29.5 µM | SF-295 36.6 µM | RXF 393 > 50 µM | PC-3 14.6 µM | LOX IMVI 31.6 µM | SR 22.9 µM | OVCAR-8 > 50 µM | NCI-H226 36.3 µM | NCI-H522 28.8 µM | MDA-N 21.5 µM

— ChEMBL document CHEMBL1201862, “PubChem BioAssay data set” (2004)
